{"source": "patent US8354106B2", "about": "“Antibodies against HMGB1 and fragments thereof” (The Feinstein Institute for Medical Research, priority 2005, dated 2013)", "key": {"[1]": {"tested_on": "allogeneic T cells co-cultured with BM-DCs", "test": "Functional maturation of BM-DCs: allogeneic T cell proliferation in mixed lymphocyte reaction (3H-thymidine)", "assay_type": "cell-based, mouse", "details": "BM-DCs from C57/BL6 mice exposed 48 h; peptide 200 μg/ml, HMGB1-Bx 50 μg/ml; DC:T cell ratio 1:120, 5 days; FIG. 4A", "method": "Immature BM-DCs that were generated from C57/BL6 mice (FIG. 4A) or Balb/c mice (FIG. 4B) were incubated for 48 h with either HMGB1-Bx (50 μg/ml), a particular HMGB1 peptide (200 μg/ml), LPS (100 ng/ml) or were left untreated (medium). T cells were isolated by negative selection using the mouse SpinSep antibody cocktail from StemCell Technologies (Vancouver, Calif.), according to the manufacturer's instructions. The cell purity of the isolated T cells was routinely ˜99% pure. In order to assess levels of T cell activation and proliferation, cells were plated at 10^5 cells per well in a round-bottomed 96-well tray at a DC:T cell ratio of 1:120 for 5 days in the medium described above. The microcultures were pulsed with (^3H)-thymidine ([…]) for the final 8 h of culture. Cell cultures were harvested onto glass fiber filters with an automated multiple sample harvester and the amount of isotope incorporation was determined by liquid scintillation β-emission. Responses are reported as mean cpm of thymidine incorporation by triplicate cultures (±SEM)."}, "immature BM-DCs": {"tested_on": "immature BM-DCs", "test": "Phenotypic maturation of murine BM-DCs: surface maturation markers by FACS", "assay_type": "cell-based, mouse", "details": "CD11c+ gated, mean fluorescence intensity, peptide 200 μg/ml, HMGB1-Bx 50 μg/ml", "method": "In order to determine whether HMGB1-Bx and/or particular HMGB1 peptides could induce phenotypic maturation of murine DCs, immature BM-DCs were exposed to either HMGB1-Bx, a particular HMGB1 peptide, or LPS (FIG. 3). Fluorescence activated cell sorting (FACS) analysis was performed on immature DCs that were cultured in the presence of either HMGB1-Bx (50 μg/ml), an HMGB1 peptide (200 μg/ml), or LPS (100 ng/ml). Untreated DCs (medium) were also tested as a control. DCs were gated on CD11c^+ cells and analyzed for expression of specific maturation markers (e.g., CD86, MHC-II, CD40) by surface membrane immunofluorescence. In particular, 1×10^4 DCs were reacted for at least 20 min at 4° C. in […] of PBS/5% FCS/0.1% sodium azide (staining buffer) with fluorescein isothiocyanate (FITC)-conjugated IgG monoclonal antibodies (mAbs) that are specific for CD86, CD40 or MHC-II (eBioscience). Cells were then washed 4 times with staining buffer, fixed in 10% formaldehyde in PBS (pH 7.2-7.4) and examined by flow cytometry using a FACScan (BD Biosciences). In all experiments, isotype controls were included using a FITC-conjugated irrelevant mAb of the same Ig class. Results are depicted as mean fluorescence intensity (MFI)."}}, "note": "Where no end group is shown, it is not given here. The star is where a group is joined. Biotin = O=C1N[C@H]2[C@H](CS[C@H]2CCCCC(=O)*)N1"}
{"sequence": "SIGDVAKKLGEMWNNTAA (Biotin-SIGDVAKKLGEMWNNTAA; listed as Homo sapiens) [Hp-121, control peptide]", "values": [{"measurement": "proliferation of resting allogeneic T cells (3H thymidine incorporation)", "setting": "[1]", "value": "did not show enhanced T cell stimulatory activity"}, {"measurement": "CD86 expression on the surface of BM-DCs", "setting": "immature BM-DCs; FIG. 3A", "value": "No altered expression"}, {"measurement": "MHC-II expression on the surface of BM-DCs", "setting": "immature BM-DCs; FIG. 3B", "value": "No altered expression"}, {"measurement": "CD40 expression on the surface of BM-DCs", "setting": "immature BM-DCs; FIG. 3C", "value": "No altered expression"}]}
